In patent publication US12421253B2 (Mirati Therapeutics, Inc., priority 2020, dated 2025):
pIC50: −log10 of the molar value.

How the values were obtained:
[1] = test system: AsPC-1 (G12D) cells, phospho-ERK; assay: Inhibition of KRas-mediated phosphorylation of ERK (phospho-ERK/GAPDH antibody detection, LI-COR); assay type: cell-based; conditions: Homo sapiens, ASPC1, 3 hours
Description: (§1) AsPC-1 (G12D, ATCC CRL-1682), A549 (G12S, ATCC CCL-185), HCT116 (G13D, ATCC CCL-247) cells were grown in DMEM medium supplemented with 10% fetal bovine serum and Penicillin/Streptomycin. NCI-H358 (G12C, ATCC CRL-5807), NCI-H460 (Q61H, ATCC HTB-117), NCI-H727 (G12V, ATCC CRL-5815), MKN1 (WTdep, JCRB JCRB0252), PSN-1 (G12R, ATCC CRM-CRL-3211) cells were grown in RPMI medium supplemented with 10% fetal bovine serum, 10 mM HEPES, 10 mM Sodium Pyruvate, and Penicillin/Streptomycin. Cells were plated in black well clear bottom tissue culture treated 96 well plates (Corning, 3904) at a density of 20,000 cells/well and allowed to attach for 12-14 hours. Diluted compounds were then added in a final concentration of 0.5% DMSO. After 3 hours, 50 μL of 4.0% formaldehyde was added and the plates incubated at room temperature for 20 minutes. The plates were then dumped and permeabilized with 150 μL of ice cold 100% methanol for 10 minutes. Non-specific antibody binding to the plates was blocked using 100 μL Odyssey blocking buffer (LI-COR Biosciences, 927-60010) for 1 hour at room temperature.
(§2) The amount of phospho-ERK was determined using an antibody specific for the phosphorylated form of ERK and compared to the amount of GAPDH. Primary antibodies used for the detection were added as follows: Phospho-ERK (Cell Signaling CS-9101) diluted 1:500 and GAPDH (Millipore MAB374) diluted 1:5000 in Odyssey blocking buffer+0.05% Tween 20. The plates were incubated overnight at 4 C. The plates were washed 3× with 150 uL PBS+0.1% Tween 20.
(§3) Secondary antibodies used to visualize primary antibodies were added as follows: Goat Anti-Rabbit-800 (LI-COR, 926-32211) and Goat Anti-Mouse-680 (LI-COR, 926-68070) diluted 1:800 both in Odyssey blocking buffer+0.05% Tween 20 and were incubated for 1 hour at room temperature. The plates were washed 3× with 150 uL PBS+[…]. Plates were imaged dry on a Li—COR Odyssey CLX plate reader.
(§4) The phospho-ERK (Thr202/Tyr204) signal was normalized to the GAPDH signal for each well and percent of DMSO control values were calculated. IC50 values were generated using a 4-parameter fit of the dose response curve.

[2] = test system: NCI-H460 (Q61H) cells, phospho-ERK; assay: as above; assay type: cell-based; conditions: Homo sapiens, 3 hours
Description: as §1, §2, §3, §4

[3] = test system: NCI-H727 (G12V) cells, phospho-ERK; assay: as above; assay type: cell-based; conditions: Homo sapiens, 3 hours
Description: as §1, §2, §3, §4

PSN1 cells, pERK = assay: Inhibition of KRas phosphorylation of ERK (Cisbio HTRF Advanced pERK assay); assay type: cell-based; conditions: Homo sapiens, PSN1, 3 h, read-out: Inhibition (HTRF IC50 nM) of KRas-mediated Phosphorylation of ERK, PSN1
Method in brief: (§5)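 Compound effect on ERK phosphorylation is measured after 3 h exposure of cells, seeded the previous day in RPMI with 10% FBS, to ten 3-fold dilutions starting at 10 uM. Lysates are probed by HTRF for pERK, with trametinib at 0.2 uM defining the minimum signal.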

HCT116 cells, pERK = assay: as above; assay type: cell-based; conditions: Homo sapiens, HCT-116, 3 hrs, read-out: Inhibition (HTRF IC50 nM) of KRas-mediated Phosphorylation of ERK, HCT116
Method in brief: as §5

MKN1 cells, pERK = assay: as above; assay type: cell-based; conditions: Homo sapiens, MKN-1, 3 h, read-out: Inhibition (HTRF IC50 nM) of KRas-mediated Phosphorylation of ERK, MKN1
Method in brief: as §5

ASPC1 cells, pERK = assay: as above; assay type: cell-based; conditions: Homo sapiens, ASPC1, 3 h, AsPC-1 cells, read-out: Inhibition (HTRF IC50 nM) of KRas-mediated Phosphorylation of ERK, AsPC-1
Method in brief: as §5

H727 cells, pERK = assay: as above; assay type: cell-based; conditions: Homo sapiens, NCI-H727, 3 h, read-out: Inhibition (HTRF IC50 nM) of KRas-mediated Phosphorylation of ERK, H727
Method in brief: as §5

KRas^G12R = target: T1, KRas^G12R (Homo sapiens, UniProt P01116, G12R); assay: KRas binding assay (TR-FRET displacement of Cy5 labelled tracer)
T1 construct: […]; biotin (biotinylated); purchased Accelegan Inc
T1 sequence (P01116 1-169 isoform P01116-2 G12R): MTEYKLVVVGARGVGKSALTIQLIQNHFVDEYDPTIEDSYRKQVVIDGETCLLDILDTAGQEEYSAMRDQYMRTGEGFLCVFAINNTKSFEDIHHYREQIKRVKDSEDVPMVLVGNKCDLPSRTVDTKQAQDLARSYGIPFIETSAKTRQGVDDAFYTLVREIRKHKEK
Description: (§6) The ability of a compound to bind to KRas was measured using a TR-FRET displacement assay. […] After a 60-minute incubation at room temperature, the reaction was measured using a BMG LABTECH CLARIO star Plus via TR-FRET. […] The POC values were fit to a 4-parameter IC50 equation and the IC50 value reported.

KRas^G12V = target: T2, KRas^G12V (Homo sapiens, UniProt P01116, G12V); assay: as above
T2 construct: […]; biotin (biotinylated); purchased Accelegan Inc
T2 sequence (P01116 1-169 isoform P01116-2 G12V): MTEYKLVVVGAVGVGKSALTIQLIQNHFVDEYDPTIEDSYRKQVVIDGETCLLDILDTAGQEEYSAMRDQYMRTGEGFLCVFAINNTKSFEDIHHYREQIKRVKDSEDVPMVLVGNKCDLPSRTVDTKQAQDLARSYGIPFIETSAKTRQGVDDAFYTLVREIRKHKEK
Description: as §6

KRas^G12D = target: T3, KRas^G12D (Homo sapiens, UniProt P01116, G12D); assay: as above
T3 construct: […]; biotin (biotinylated); purchased Accelegan Inc
T3 sequence (P01116 1-169 isoform P01116-2 G12D): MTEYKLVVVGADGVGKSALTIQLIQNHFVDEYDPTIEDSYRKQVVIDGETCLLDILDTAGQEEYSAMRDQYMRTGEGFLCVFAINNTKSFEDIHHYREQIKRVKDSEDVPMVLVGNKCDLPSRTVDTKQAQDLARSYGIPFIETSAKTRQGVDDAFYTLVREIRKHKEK
Description: as §6

H460 cells, pERK = assay: Inhibition of KRas phosphorylation of ERK (Cisbio HTRF Advanced pERK assay); assay type: cell-based; conditions: Homo sapiens, NCI-H460, 3 hrs, read-out: Inhibition (HTRF IC50 nM) of KRas-mediated Phosphorylation of ERK, H460
Method in brief: as §5

A549 cells, pERK = assay: as above; assay type: cell-based; conditions: Homo sapiens, 3 hrs, read-out: Inhibition (HTRF IC50 nM) of KRas-mediated Phosphorylation of ERK, A549
Method in brief: as §5

KRas^G12A = target: T4, KRas^G12A (Homo sapiens, UniProt P01116, G12A); assay: KRas binding assay (TR-FRET displacement of Cy5 labelled tracer)
T4 construct: […]; biotin (biotinylated); purchased Accelegan Inc
T4 sequence (P01116 1-169 isoform P01116-2 G12A): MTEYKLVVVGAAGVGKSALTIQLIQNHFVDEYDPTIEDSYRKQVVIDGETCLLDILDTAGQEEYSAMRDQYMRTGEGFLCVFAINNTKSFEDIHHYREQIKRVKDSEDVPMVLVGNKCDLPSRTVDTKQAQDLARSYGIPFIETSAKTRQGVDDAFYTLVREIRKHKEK
Description: as §6

KRas^G12S = target: T5, KRas^G12S (Homo sapiens, UniProt P01116, G12S); assay: as above
T5 construct: […]; biotin (biotinylated); purchased Accelegan Inc
T5 sequence (P01116 1-169 isoform P01116-2 G12S): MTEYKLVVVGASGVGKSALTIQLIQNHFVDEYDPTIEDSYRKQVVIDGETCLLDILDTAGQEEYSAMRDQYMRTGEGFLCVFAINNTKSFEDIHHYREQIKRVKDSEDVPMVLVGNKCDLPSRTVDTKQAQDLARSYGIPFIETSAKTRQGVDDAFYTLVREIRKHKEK
Description: as §6

KRas^WT = target: T6, KRas^WT (Homo sapiens, UniProt P01116); assay: as above
T6 construct: […]; biotin (biotinylated); purchased Accelegan Inc
T6 sequence (P01116 1-169 isoform P01116-2): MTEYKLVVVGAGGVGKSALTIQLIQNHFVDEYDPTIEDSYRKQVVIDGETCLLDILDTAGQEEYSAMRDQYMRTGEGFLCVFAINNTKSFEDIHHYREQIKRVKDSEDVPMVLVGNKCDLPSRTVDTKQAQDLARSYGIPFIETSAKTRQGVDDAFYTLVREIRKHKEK
Description: as §6

KRas^G13D = KRas^G13D (Homo sapiens, UniProt P01116, G13D); assay: biochemical
KRas^G13D, sequence (P01116 1-169 isoform P01116-2 G13D): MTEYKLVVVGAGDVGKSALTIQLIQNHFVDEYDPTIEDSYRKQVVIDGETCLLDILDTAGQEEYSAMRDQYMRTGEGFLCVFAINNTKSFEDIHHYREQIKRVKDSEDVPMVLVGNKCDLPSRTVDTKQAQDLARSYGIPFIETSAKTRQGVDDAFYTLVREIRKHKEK
Description: as §6

KRas^Q61H = KRas^Q61H (Homo sapiens, UniProt P01116, Q61H); assay: biochemical
KRas^Q61H, sequence (P01116 1-169 isoform P01116-2 Q61H): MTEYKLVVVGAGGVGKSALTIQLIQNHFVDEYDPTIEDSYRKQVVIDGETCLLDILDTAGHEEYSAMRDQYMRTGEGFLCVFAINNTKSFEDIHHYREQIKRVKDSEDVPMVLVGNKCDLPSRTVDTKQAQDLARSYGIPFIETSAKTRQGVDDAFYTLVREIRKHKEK
Description: as §6

KRas^G12C = KRas^G12C (Homo sapiens, UniProt P01116, G12C); assay: biochemical
KRas^G12C, sequence (P01116 1-169 isoform P01116-2 G12C): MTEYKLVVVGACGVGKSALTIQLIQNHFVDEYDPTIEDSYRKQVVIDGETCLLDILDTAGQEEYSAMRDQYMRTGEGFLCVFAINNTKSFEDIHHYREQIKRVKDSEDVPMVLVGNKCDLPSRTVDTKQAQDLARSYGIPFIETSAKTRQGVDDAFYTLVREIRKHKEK
Description: as §6

SMILES | IC50 [1] | IC50 [2] | IC50 [3] | IC50 (PSN1 cells, pERK) | IC50 (HCT116 cells, pERK) | IC50 (MKN1 cells, pERK) | IC50 (ASPC1 cells, pERK) | IC50 (H727 cells, pERK) | pIC50 (KRas^G12R) | pIC50 (KRas^G12V) | pIC50 (KRas^G12D) | IC50 (H460 cells, pERK) | IC50 (A549 cells, pERK) | pIC50 (KRas^G12A) | pIC50 (KRas^G12S) | pIC50 (KRas^WT) | pIC50 (KRas^G13D) | pIC50 (KRas^Q61H) | pIC50 (KRas^G12C)
CCc1c(F)ccc2cc(O)cc(N3CCc4c(nc(OC[C@@]56CCCN5C[C@H](F)C6)nc4N4CCOCC(n5cccn5)C4)C3)c12 (stereo partly drawn) [Example 25, 4-(4-(6-(1H-pyrazol-1-yl)-1,4-oxazepan-4-yl)-2-(((2R,7aS)-2-fluorohexahydro-1H-pyrrolizin-7a-yl)methoxy)-5,6-dihydropyrido[3,4-d]pyrimidin-7(8H)-yl)-5-ethyl-6-fluoronaphthalen-2-ol] | 448 nM | 171 nM | 540 nM | 8320 nM | 521 nM | 51 nM | 180 nM | 767 nM | 8.40 | 8.52 | 8.52 |  |  |  |  |  |  |  | 
CCc1c(F)ccc2cc(O)cc(N3CCc4c(nc(OC[C@@H]5CCCN5C)nc4N4CCCn5nc(C(=O)N(C)C)cc5C4)C3)c12 [Example 198, 5-[7-(8-ethyl-7-fluoro-3-hydroxy-1-naphthyl)-2-[[(2S)-1-methylpyrrolidin-2-yl]methoxy]-6,8-dihydro-5H-pyrido[3,4-d]pyrimidin-4-yl]-N,N-dimethyl-4,6,7,8-tetrahydropyrazolo[1,5-a][1,4]diazepine-2-carboxamide] |  |  |  | ≥ 10000 nM | 1950 nM | 185 nM | 185 nM | 344 nM | 8.30 | ≥ 8.70 | ≥ 8.70 | 1240 nM | 671 nM |  |  |  |  |  | 
O=C1NCC2(CCCN(c3nc(OC[C@@]45CCCN4C[C@H](F)C5)nc4c3CCN(c3cc(O)cc5ccc(F)c(Cl)c35)C4)C2)N1 (stereo partly drawn) [Example 228, 7-(7-(8-chloro-7-fluoro-3-hydroxynaphthalen-1-yl)-2-(((2R,7aS)-2-fluorohexahydro-1H-pyrrolizin-7a-yl)methoxy)-5,6,7,8-tetrahydropyrido[3,4-d]pyrimidin-4-yl)-1,3,7-triazaspiro[4.5]decan-2-one] |  |  |  | 696 nM | 405 nM | 24 nM | 108 nM | 197 nM | ≥ 8.70 | ≥ 8.70 | ≥ 8.70 | 253 nM | 146 nM |  |  |  |  |  | 
O=C1NC(=O)C2(CCCN(c3nc(OC[C@@]45CCCN4C[C@H](F)C5)nc4c3CCN(c3cc(O)cc5ccc(F)c(Br)c35)C4)C2)N1 (stereo partly drawn) [Example 217, 7-(7-(8-bromo-7-fluoro-3-hydroxynaphthalen-1-yl)-2-(((2R,7aS)-2-fluorohexahydro-1H-pyrrolizin-7a-yl)methoxy)-5,6,7,8-tetrahydropyrido[3,4-d]pyrimidin-4-yl)-1,3,7-triazaspiro[4.5]decane-2,4-dione] |  |  |  | 269 nM | 227 nM | 21 nM | 234 nM | 390 nM | ≥ 8.70 | ≥ 8.70 | ≥ 8.70 | 132 nM | 160 nM |  |  |  |  |  | 
CCc1c(F)ccc2cc(O)cc(N3CCc4c(nc(OC[C@@]56CCCN5C[C@H](F)C6)nc4N4CCCC(c5ncn[nH]5)C4)C3)c12 (stereo partly drawn) [Example 19, 4-(4-(3-(1H-1,2,4-triazol-5-yl)piperidin-1-yl)-2-(((2R,7aS)-2-fluorotetrahydro-1H-pyrrolizin-7a(5H)-yl)methoxy)-5,8-dihydropyrido[3,4-d]pyrimidin-7(6H)-yl)-5-ethyl-6-fluoronaphthalen-2-ol] | 2680 nM | 1290 nM | 2930 nM | ≥ 10000 nM |  | 389 nM |  |  | 8.40 | 8.22 | 7.59 |  |  | 8.40 | 8.05 | 8.10 | 7.96 | 8.05 | 8.30
CCc1c(F)ccc2cc(O)cc(N3CCc4c(nc(OC[C@@]56CCCN5C[C@H](F)C6)nc4N4CCOCC(O)C4)C3)c12 (stereo partly drawn) [Example 29, 4-(7-(8-ethyl-7-fluoro-3-hydroxynaphthalen-1-yl)-2-(((2R,7aS)-2-fluorohexahydro-1H-pyrrolizin-7a-yl)methoxy)-5,6,7,8-tetrahydropyrido[3,4-d]pyrimidin-4-yl)-1,4-oxazepan-6-ol] | 509 nM | 285 nM | 542 nM | 5810 nM | 1310 nM | 20 nM | 318 nM | 906 nM | ≥ 8.70 | ≥ 8.70 | ≥ 8.70 |  |  |  |  |  |  |  | 
CCc1c(F)ccc2cc(O)cc(N3CCc4c(nc(OC[C@@]56CCCN5C[C@H](F)C6)nc4N4CCC(O)C(CO)CC4)C3)c12 (stereo partly drawn) [Example 33, 1-(7-(8-ethyl-7-fluoro-3-hydroxynaphthalen-1-yl)-2-(((2R,7aS)-2-fluorohexahydro-1H-pyrrolizin-7a-yl)methoxy)-5,6,7,8-tetrahydropyrido[3,4-d]pyrimidin-4-yl)-5-(hydroxymethyl)azepan-4-ol] | 1360 nM | 398 nM | 1860 nM | ≥ 10000 nM |  | 11 nM |  |  | ≥ 8.70 | ≥ 8.70 | 8.30 |  |  |  |  |  |  |  | 
CCc1c(F)ccc2cc(O)cc(N3CCc4c(nc(OC[C@@]56CCCN5C[C@H](F)C6)nc4NCc4c[nH]c5ncccc45)C3)c12 [Example 23, 4-(4-(((1H-pyrrolo[2,3-b]pyridin-3-yl)methyl)amino)-2-(((2R,7aS)-2-fluorohexahydro-1H-pyrrolizin-7a-yl)methoxy)-5,6-dihydropyrido[3,4-d]pyrimidin-7(8H)-yl)-5-ethyl-6-fluoronaphthalen-2-ol] | 3850 nM | 1770 nM | 2420 nM | ≥ 10000 nM |  | 53 nM |  |  | 8.40 | 8.30 | 7.16 |  |  | 8.05 | 7.92 | 7.44 | 7.38 | 7.42 | 8.15
